Legend:
[1] = target: Epidermal growth factor receptor (Homo sapiens) (UniProt P00533); test: Inhibition of Epidermal Growth Factor (EGF) at 10 µM in the Eurofins-Panlabs radioligand binding assay (Eurofins_assay_225510); conditions: Compound concentration 10.0 uM
Rattus norvegicus [2] = species on record: Rattus norvegicus; test: Inhibition of Glutamate, NMDA, Phencyclidine at 10 µM in the Eurofins-Panlabs radioligand binding assay (Eurofins_assay_233000); assay type: protein-complex assay; conditions: Compound concentration 10.0 uM
[3] = target: Phosphodiesterase 3 (Homo sapiens) (UniProt Q14432+Q13370); test: Inhibition of Phosphodiesterase PDE3 at compound concentration of 10.0 uM in the Eurofins-Panlabs enzyme assay (Eurofins_assay_152000); assay type: protein assay; parameters: substrate with concentration 1.01 uM [3H] cAMP + cAMP, incubation time 20 min, incubation temperature 25 C; conditions: Compound concentration […]
[4] = target: Melanocortin receptor 4 (Homo sapiens) (UniProt P32245); test: Inhibition of Melanocortin MC4 at 10 µM in the Eurofins-Panlabs radioligand binding assay (Eurofins_assay_251350); parameters: ligand concentration 0.02 nM; conditions: Compound concentration 10.0 uM
[5] = target: T1, 5-hydroxytryptamine receptor 3A (Homo sapiens) (UniProt P46098); test: Inhibition of Serotonin (5-Hydroxytryptamine) 5-HT3 at 10 µM in the Eurofins-Panlabs radioligand binding assay (Eurofins_assay_271910); parameters: ligand concentration 0.69 nM; conditions: Compound concentration 10.0 uM
T1 sequence (whole entry): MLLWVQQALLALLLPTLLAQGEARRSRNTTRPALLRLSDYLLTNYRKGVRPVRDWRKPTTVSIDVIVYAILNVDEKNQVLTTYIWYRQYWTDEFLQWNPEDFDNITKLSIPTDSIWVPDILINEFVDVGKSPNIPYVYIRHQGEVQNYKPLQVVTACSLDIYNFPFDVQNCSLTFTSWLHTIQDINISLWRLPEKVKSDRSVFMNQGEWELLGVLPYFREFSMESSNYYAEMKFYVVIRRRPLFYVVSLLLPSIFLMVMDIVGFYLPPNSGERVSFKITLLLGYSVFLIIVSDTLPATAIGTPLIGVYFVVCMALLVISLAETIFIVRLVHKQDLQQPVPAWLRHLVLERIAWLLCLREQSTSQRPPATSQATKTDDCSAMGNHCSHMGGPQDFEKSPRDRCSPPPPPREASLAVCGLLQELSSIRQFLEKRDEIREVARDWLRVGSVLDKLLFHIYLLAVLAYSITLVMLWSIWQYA

[6] = target: Substance-K receptor (Homo sapiens) (UniProt P21452); test: Inhibition of Tachykinin NK2 at 10 µM in the Eurofins-Panlabs radioligand binding assay (Eurofins_assay_255600); parameters: ligand concentration 0.5 nM; conditions: Compound concentration 10.0 uM
[7] = target: Delta-type opioid receptor (Homo sapiens) (UniProt P41143); test: Opiate delta (OP1, DOP) Eurofins-Panlabs radioligand binding assay; conditions: Compound concentration 10.0 uM
Caspase-3 (Homo sapiens) = Caspase-3 (Homo sapiens) (UniProt P42574); test: Peptidase, CASP3 (Caspase 3) Eurofins-Panlabs enzyme assay; conditions: Compound concentration 10.0 uM
Bos taurus [8] = species on record: Bos taurus; test: Protein Serine/Threonine Kinase, PKA, Non-Selective Eurofins-Panlabs enzyme assay; assay type: protein-complex assay; parameters: substrate with concentration 370 µg/mL Histone Type III-S, incubation time 15 min, incubation temperature 25 °C; conditions: Compound concentration 100.0 uM
[9] = target: Polyunsaturated fatty acid lipoxygenase ALOX12 (Homo sapiens) (UniProt P18054); test: Lipoxygenase 12-LO Eurofins-Panlabs enzyme assay; parameters: substrate with concentration; conditions: Compound concentration 10.0 uM
Caspase-7 (Homo sapiens) = Caspase-7 (Homo sapiens) (UniProt P55210); test: Peptidase, CASP7 (Caspase 7) Eurofins-Panlabs enzyme assay; conditions: Compound concentration 10.0 uM
Bos taurus [10] = species on record: Bos taurus; test: Phosphodiesterase PDE6 Eurofins-Panlabs enzyme assay; parameters: substrate with concentration [3H] cGMP + cGMP, incubation time 20 min, incubation temperature 25 °C; conditions: Compound concentration 100.0 uM
Homo sapiens = species on record: Homo sapiens; test: Protein Serine/Threonine Kinase, MAPK14 (p38α) Eurofins-Panlabs enzyme assay; parameters: substrate with concentration 10 µg/mL Myelin Basic Protein (MBP), incubation time 60 min, incubation temperature 25 °C; conditions: Compound concentration 10.0 uM
[11] = target: Vascular endothelial growth factor receptor 1 (Homo sapiens) (UniProt P17948); test: Protein Tyrosine Kinase, FLT1 (VEGFR-1) Eurofins-Panlabs enzyme assay; conditions: Compound concentration 10.0 uM
[12] = target: Cannabinoid receptor 1 (Homo sapiens) (UniProt P21554); test: Cannabinoid CB1 Eurofins-Panlabs radioligand binding assay; conditions: Compound concentration 10.0 uM
[13] = target: D(1B) dopamine receptor (Homo sapiens) (UniProt P21918); test: Dopamine D5 Eurofins-Panlabs radioligand binding assay; conditions: Compound concentration 10.0 uM
[14] = target: Glutamate NMDA receptor; GRIN1/GRIN2A (Homo sapiens) (UniProt Q05586+Q12879); test: NMDA-NR1a/NR2a Eurofins-Panlabs radioligand binding assay; assay type: protein-complex assay; conditions: Compound concentration 10.0 uM
[15] = target: Prostaglandin D2 receptor (Homo sapiens) (UniProt Q13258); test: Prostanoid DP Eurofins-Panlabs radioligand binding assay; conditions: Compound concentration 10.0 uM
[16] = target: Prostacyclin receptor (Homo sapiens) (UniProt P43119); test: Prostanoid IP Eurofins-Panlabs radioligand binding assay; parameters: ligand concentration 5 nM; conditions: Compound concentration 10.0 uM
Rattus norvegicus [17] = species on record: Rattus norvegicus; test: Serotonin (5-Hydroxytryptamine) 5-HT1, Non-Selective Eurofins-Panlabs radioligand binding assay; assay type: protein assay; conditions: Compound concentration 10.0 uM
[18] = target: Somatostatin receptor type 3 (Homo sapiens) (UniProt P32745); test: Somatostatin sst3 Eurofins-Panlabs radioligand binding assay; conditions: Compound concentration 10.0 uM
[19] = target: Sodium-dependent serotonin transporter (Homo sapiens) (UniProt P31645); conditions: Compound concentration 10.0 uM
[20] = target: Muscarinic acetylcholine receptor M2 (Homo sapiens) (UniProt P08172); conditions: Compound concentration 10.0 uM
[21] = target: Muscarinic acetylcholine receptor M3 (Homo sapiens) (UniProt P20309); conditions: Compound concentration 10.0 uM
[22] = target: Beta-2 adrenergic receptor (Homo sapiens) (UniProt P07550); conditions: Compound concentration 10.0 uM
[23] = target: Muscarinic acetylcholine receptor M2 (Homo sapiens) (UniProt P08172); conditions: Compound concentration 10.0 uM; remark: listed apart in the source
[24] = target: Beta-3 adrenergic receptor (Homo sapiens) (UniProt P13945); conditions: Compound concentration 10.0 uM
[25] = target: GABA-A receptor; anion channel (Rattus norvegicus) (UniProt O09028+P15431+P18506+P18508+P19969+P20236+P23574+P23576+P28471+P28473+P30191+P62813+P63079+P63138+Q91ZM7+Q9ES14); conditions: Compound concentration 10.0 uM
[26] = target: T2, 5-hydroxytryptamine receptor 2C (Homo sapiens) (UniProt P28335); conditions: Compound concentration 10.0 uM
T2 sequence (whole entry): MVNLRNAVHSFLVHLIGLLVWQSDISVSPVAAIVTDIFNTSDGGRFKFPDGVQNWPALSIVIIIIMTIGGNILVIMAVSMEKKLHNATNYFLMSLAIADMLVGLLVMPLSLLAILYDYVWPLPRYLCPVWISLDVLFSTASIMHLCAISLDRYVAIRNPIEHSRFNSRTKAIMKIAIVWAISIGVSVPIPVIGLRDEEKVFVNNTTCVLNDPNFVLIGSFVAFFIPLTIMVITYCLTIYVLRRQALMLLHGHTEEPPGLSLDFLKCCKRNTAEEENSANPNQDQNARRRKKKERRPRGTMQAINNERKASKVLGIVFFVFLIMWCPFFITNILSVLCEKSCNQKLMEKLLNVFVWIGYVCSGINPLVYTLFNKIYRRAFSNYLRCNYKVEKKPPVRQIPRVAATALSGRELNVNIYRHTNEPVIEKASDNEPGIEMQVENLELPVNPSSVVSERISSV

[27] = target: 5-hydroxytryptamine receptor 1E (Homo sapiens) (UniProt P28566); conditions: Compound concentration 10.0 uM

Measured: inhibition

Chain of Muscarinic acetylcholine receptor M2 (Homo sapiens) (P08172 whole entry): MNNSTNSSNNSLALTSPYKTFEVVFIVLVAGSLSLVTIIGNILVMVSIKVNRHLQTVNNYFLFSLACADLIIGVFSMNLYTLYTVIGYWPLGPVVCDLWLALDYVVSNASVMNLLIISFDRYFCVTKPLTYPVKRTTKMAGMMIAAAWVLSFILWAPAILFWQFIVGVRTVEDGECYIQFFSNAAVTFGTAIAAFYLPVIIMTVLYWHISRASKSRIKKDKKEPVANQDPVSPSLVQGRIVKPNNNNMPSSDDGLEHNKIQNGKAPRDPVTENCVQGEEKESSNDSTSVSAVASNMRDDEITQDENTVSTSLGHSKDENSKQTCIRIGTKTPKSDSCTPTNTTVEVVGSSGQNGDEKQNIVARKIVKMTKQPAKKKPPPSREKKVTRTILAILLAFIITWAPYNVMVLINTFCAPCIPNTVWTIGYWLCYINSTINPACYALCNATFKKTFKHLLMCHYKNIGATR
Chain of D(1B) dopamine receptor (Homo sapiens) (P21918 whole entry): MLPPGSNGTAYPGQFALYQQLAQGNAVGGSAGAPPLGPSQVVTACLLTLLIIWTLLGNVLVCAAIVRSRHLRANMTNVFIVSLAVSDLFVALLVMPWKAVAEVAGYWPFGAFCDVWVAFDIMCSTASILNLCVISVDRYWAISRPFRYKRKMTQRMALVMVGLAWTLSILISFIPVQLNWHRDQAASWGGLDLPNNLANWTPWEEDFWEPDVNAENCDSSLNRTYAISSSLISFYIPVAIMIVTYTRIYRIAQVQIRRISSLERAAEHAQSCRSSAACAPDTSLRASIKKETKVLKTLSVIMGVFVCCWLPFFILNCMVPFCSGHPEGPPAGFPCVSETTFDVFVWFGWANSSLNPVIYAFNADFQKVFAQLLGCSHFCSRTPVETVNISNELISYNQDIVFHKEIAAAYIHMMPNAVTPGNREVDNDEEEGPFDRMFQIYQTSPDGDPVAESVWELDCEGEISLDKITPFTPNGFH
Chain of Delta-type opioid receptor (Homo sapiens) (P41143 whole entry): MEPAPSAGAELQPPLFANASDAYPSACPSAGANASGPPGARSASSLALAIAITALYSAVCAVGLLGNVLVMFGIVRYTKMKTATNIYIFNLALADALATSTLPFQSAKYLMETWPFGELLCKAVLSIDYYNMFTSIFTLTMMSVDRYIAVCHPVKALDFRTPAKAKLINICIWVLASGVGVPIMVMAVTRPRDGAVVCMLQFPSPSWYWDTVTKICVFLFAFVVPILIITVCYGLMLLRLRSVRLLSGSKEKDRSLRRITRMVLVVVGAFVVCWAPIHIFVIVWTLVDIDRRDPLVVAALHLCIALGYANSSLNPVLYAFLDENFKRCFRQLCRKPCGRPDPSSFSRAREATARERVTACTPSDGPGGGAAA
Chain of Beta-3 adrenergic receptor (Homo sapiens) (P13945 whole entry, looked up): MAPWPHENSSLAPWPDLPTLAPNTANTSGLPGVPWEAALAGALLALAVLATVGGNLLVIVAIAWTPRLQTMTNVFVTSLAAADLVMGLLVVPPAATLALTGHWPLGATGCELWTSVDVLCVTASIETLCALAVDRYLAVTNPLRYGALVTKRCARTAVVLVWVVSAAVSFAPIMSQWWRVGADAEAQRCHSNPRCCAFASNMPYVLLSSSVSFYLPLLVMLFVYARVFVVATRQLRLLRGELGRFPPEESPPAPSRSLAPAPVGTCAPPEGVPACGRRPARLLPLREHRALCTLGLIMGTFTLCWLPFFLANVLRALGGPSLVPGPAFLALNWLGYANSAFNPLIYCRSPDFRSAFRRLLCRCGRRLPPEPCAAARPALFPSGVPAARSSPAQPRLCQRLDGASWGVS
Chain of Muscarinic acetylcholine receptor M3 (Homo sapiens) (P20309 whole entry, looked up): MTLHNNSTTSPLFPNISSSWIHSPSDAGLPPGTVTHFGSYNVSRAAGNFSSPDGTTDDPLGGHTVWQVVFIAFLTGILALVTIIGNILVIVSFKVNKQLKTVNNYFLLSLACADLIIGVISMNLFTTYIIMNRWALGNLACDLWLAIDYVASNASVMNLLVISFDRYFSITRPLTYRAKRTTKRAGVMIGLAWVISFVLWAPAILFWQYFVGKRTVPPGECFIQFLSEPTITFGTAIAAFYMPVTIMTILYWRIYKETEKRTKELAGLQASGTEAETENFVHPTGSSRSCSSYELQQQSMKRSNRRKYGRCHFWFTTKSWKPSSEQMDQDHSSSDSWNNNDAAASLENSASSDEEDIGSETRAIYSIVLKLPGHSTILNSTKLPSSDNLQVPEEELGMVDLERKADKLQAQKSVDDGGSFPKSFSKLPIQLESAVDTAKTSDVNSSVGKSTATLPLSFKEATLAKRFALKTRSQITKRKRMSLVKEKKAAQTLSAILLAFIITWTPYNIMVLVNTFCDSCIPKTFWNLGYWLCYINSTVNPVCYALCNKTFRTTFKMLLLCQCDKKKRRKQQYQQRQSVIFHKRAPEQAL
Chain of Melanocortin receptor 4 (Homo sapiens) (P32245 whole entry): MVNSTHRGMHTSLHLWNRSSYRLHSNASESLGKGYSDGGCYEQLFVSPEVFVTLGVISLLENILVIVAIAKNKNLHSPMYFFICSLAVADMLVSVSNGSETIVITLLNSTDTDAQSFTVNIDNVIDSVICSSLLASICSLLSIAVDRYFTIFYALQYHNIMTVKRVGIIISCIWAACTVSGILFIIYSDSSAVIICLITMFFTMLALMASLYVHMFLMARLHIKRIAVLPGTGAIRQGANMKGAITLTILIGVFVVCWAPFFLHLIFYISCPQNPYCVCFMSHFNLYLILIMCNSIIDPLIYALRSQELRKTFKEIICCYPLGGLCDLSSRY
Chain of Beta-2 adrenergic receptor (Homo sapiens) (P07550 whole entry, looked up): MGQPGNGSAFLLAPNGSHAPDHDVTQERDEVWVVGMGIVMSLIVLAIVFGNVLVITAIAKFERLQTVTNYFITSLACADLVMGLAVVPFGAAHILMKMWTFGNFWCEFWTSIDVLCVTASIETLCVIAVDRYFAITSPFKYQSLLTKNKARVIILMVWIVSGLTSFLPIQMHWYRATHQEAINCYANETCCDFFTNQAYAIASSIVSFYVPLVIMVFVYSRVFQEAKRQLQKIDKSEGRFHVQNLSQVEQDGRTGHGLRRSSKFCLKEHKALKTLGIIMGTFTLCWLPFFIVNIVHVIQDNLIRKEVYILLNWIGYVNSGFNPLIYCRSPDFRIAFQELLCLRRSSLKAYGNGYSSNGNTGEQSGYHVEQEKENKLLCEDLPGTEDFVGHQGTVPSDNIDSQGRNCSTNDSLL
Chain of 5-hydroxytryptamine receptor 1E (Homo sapiens) (P28566 whole entry): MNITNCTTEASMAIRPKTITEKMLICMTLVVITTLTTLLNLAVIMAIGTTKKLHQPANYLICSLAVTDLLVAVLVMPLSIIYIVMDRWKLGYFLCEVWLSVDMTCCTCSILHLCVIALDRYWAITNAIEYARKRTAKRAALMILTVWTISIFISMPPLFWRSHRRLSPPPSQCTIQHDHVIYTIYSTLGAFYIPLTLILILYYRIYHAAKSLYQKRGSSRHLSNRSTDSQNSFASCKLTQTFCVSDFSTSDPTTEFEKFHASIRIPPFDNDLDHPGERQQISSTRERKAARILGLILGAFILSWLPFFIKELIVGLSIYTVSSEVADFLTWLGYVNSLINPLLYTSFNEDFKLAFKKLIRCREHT
Chain of Vascular endothelial growth factor receptor 1 (Homo sapiens) (P17948 whole entry): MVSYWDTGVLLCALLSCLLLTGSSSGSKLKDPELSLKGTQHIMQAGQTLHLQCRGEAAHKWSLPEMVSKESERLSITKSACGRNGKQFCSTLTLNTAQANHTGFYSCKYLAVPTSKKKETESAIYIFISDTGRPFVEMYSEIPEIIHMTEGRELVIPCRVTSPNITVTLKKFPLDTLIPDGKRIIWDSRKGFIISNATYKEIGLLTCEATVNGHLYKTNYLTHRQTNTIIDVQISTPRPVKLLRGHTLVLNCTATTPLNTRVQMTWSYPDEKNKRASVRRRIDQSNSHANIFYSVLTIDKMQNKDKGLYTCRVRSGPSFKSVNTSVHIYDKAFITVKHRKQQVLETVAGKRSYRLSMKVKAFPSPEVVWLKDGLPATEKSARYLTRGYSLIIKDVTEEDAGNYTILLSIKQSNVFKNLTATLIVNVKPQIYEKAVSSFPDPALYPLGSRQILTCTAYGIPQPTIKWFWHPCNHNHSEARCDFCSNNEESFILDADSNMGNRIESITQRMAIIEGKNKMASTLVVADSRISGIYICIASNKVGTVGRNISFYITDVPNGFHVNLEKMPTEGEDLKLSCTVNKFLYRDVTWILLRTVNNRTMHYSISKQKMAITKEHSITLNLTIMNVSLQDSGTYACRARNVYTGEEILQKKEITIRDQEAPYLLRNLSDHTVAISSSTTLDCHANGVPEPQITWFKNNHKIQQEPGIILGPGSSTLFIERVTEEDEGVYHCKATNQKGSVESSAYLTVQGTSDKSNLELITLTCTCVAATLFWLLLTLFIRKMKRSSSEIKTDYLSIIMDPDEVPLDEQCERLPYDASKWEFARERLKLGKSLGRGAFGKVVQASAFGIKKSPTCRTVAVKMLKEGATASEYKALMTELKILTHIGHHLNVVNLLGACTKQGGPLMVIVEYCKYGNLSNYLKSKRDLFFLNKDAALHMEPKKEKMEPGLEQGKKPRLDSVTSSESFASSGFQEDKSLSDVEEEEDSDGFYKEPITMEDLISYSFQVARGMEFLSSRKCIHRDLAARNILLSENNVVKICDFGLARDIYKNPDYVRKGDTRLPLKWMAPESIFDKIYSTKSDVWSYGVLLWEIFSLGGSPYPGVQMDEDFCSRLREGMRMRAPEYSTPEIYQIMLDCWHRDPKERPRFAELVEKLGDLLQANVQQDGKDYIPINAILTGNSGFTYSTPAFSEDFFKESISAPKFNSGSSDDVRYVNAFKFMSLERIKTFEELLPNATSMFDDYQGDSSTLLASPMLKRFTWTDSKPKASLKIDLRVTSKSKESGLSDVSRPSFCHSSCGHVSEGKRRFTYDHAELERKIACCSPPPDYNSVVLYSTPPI

N#CC1(c2ccccn2)CCN(Cc2cc(C(=O)O)c(=O)n3ccccc23)CC1 [MSD-M1PAM]
inactive: [1] -7% | Rattus norvegicus [2] 11% | [3] 1% | [4] -1% | [5] 17% | [6] 9% | [7] 19% | Caspase-3 (Homo sapiens) 6% | Bos taurus [8] 24% | [9] 13% | Caspase-7 (Homo sapiens) 5% | Bos taurus [10] 5% | Homo sapiens -3% | [11] 0% | [12] -3% | [13] 2% | [14] -6% | [15] 29% | [16] 22% | Rattus norvegicus [17] 5% | [18] 2% | [19] 19% | [20] -8.07% | [21] -6.58% | [22] -4% | [23] 2% | [24] -5% | [25] 18% | [26] -8%

N#CC1(c2ccccn2)CCN(Cc2cc(C(=O)N3CCCC3)c(=O)n3ccccc23)CC1
inactive: [27] -3.26%

Reference: ChEMBL document CHEMBL4507295 (2021)
